Experimental data from patent US12428415B2, “Matriptase 2 inhibitors and uses thereof” (Disc Medicine, Inc., priority 2018, dated 2025).
Read-outs that look alike come from different tables or passages of the source.

Target: T1, Human Recombinant Matriptase 2 (Homo sapiens, UniProt Q8IU80)
T1 construct: purchased Enzo Life Sciences (an in-house preparation was also used) ALX-201-752-1
T1 sequence (Q8IU80 1-811): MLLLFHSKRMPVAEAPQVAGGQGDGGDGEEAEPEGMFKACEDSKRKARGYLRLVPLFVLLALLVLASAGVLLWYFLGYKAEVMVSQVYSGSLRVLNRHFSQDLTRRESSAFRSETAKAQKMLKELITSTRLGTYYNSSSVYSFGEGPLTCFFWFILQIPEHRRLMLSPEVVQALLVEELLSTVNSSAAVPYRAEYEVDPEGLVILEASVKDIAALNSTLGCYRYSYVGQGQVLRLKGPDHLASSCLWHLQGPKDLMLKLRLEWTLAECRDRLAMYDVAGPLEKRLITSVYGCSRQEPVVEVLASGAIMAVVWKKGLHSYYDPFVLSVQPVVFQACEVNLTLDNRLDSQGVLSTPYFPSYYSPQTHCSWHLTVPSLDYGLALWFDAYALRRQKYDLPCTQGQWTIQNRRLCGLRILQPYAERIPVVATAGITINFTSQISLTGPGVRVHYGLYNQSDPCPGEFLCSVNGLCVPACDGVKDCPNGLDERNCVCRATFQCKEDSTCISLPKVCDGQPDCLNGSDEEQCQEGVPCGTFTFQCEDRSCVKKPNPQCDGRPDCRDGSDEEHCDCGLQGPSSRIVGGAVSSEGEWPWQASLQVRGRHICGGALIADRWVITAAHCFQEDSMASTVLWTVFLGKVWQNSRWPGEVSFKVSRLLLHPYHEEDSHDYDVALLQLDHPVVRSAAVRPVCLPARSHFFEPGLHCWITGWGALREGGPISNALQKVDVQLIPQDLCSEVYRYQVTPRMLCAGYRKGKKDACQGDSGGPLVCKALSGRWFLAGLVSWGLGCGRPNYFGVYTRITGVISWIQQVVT
Assay: Matriptase 2 fluorescence based inhibition assay, Method B (50 mM TRIS pH 7.5, 150 mM NaCl, 0.01% gelatin)
Type: biochemical
Conditions: for inhibition at 1 µM: read-out: Mar-2 % inhibition at 1 uM
Procedure: Test compounds were evaluated for their potential to inhibit Human Recombinant Matriptase 2 (in-house and commercial protein from Enzo Life Sciences—cat log -ALX-201-752-1) using fluorescence based assay. The concentration of Recombinant Matriptase 2 and the substrate used in the assay was: 7 nM (commercial) and 15 nM (Inhouse Matriptase 2) and 100 μM (Boc-Gln-Ala-Arg-7-amido-4-methyl coumarin hydrobromide—Cat log: B4153-Sigma and I-1550 from Bachem) respectively. The assay buffer used was 50 mM TRIS pH 7.5, 150 mM NaCl, 0.01% gelatin (G1393 Sigma). The assay was performed using 384 well black flat bottom plate from grenier (Cat log: 781076) at 25° C. The enzyme and compound preincubated for 30 mins, plate was read 60 mins after substrate addition at wavelength Ex: 360/Em:480 nm. The final assay volume of was 20 μl. Stock solution of compounds were initially prepared in DMSO and appropriate dilutions were made for screening and IC50 determination (final DMSO conc in the assay was 1%). All the measurements were carried out using the Spectramax M5, Molecular devices. The compounds were screened at 1 and 10 μM concentration and IC50 was determined for the interested compounds.
To determine IC50 values, dose response curves were generated by plotting percentage inhibition as a function of inhibitor concentration and the data was fitted to sigmoidal non-linear regression equation (variable slope) using Graph Pad prism software V7.

[1] = 1 uM compound, Assay Used = B (Method B)
[2] = compound at 1 uM, Assay Used: B

| Structure (SMILES) | inhibition at 1 µM (1 uM compound, Assay Used = B) [%] | inhibition at 1 µM [1] [%] | also measured |
| --- | --- | --- | --- |
| N=C(N)c1ccc2cc(-c3nc4c(s3)CCC(N)C4)n(Cc3cccc4ccccc34)c2c1 (centres unmarked) [Compound I-528, 2-(5-amino-4,5,6,7-tetrahydrobenzo[d]thiazol-2-yl)-1-(naphthalen-1-ylmethyl)-1H-indole-6-carboximidamide] | 25 to 50 |  |  |
| COc1ccccc1Oc1cc(Cn2c(C(=O)N[C@H]3CC[C@H](N)CC3)cc3ccc(C(=N)N)cc32)c2ccccc2c1 [Compound I-700] |  | 50 to 75 |  |
| N=C(N)c1ccc2cc(C(=O)N[C@H]3CC[C@H](N)CC3)n(Cc3ccc(C(=O)N4CCCC4)c4ccccc34)c2c1 [Compound I-790] |  | 25 to 50 |  |
| CCOC(=O)c1cc2ccc(/C(N)=N\O)cc2n1Cc1cc(Oc2ncccn2)cc2ccccc12 [Compound I-630, ethyl (Z)-6-(N′-hydroxycarbamimidoyl)-1-((3-(pyrimidin-2-yloxy)naphthalen-1-yl)methyl)-1H-indole-2-carboxylate] |  | 0 to 25 |  |
| CS(=O)(=O)Nc1cc(Cn2c(C(=O)O)cc3ccc(C(=N)N)cc32)c2ccccc2c1 [Compound I-546] | 75 to 100 |  |  |
| N=C(N)c1ccc2cc(C(=O)N3CC[C@@H](O)C3)n(Cc3cccc4ccccc34)c2c1 [Compound I-441] | 25 to 50 |  |  |
| N=C(N)c1ccc2cc(C(=O)NCCCN3CCCCC3)n(Cc3cccc4ccccc34)c2c1 [Compound I-478] | 75 to 100 |  |  |
| N=C(N)c1ccc2cc(C(=O)N[C@H]3CC[C@H](N)CC3)n(Cc3cccc4cc(-c5ccccc5)ccc34)c2c1 [Compound I-768] |  | 75 to 100 |  |
| N=C(N)c1ccc2cc(C(=O)NCCO)n(Cc3cccc4ccccc34)c2c1 [Compound I-600] |  | 75 to 100 |  |
| N/C(=N\O)c1ccc2cc(C(=O)O[C@H]3CC[C@H](N)CC3)n(Cc3cccc4ccccc34)c2c1 [Compound I-810, (1r,4r)-4-aminocyclohexyl 6-((Z)—N′-hydroxycarbamimidoyl)-1-(naphthalen-1-ylmethyl)-1H-indole-2-carboxylate] |  |  | inhibition at 1 µM [2]: 25 to 50% |
| COC(=O)NCCOC(=O)c1cc2ccc(C(=N)N)cc2n1Cc1cc(S(=O)(=O)c2ccccc2)cc2ccccc12 [Compound I-556] | 25 to 50 |  |  |
| CNC(=N)c1ccc2cc(C(=O)N[C@H]3CC[C@H](N)CC3)n(Cc3ccc4ccccc4c3)c2c1 [Compound I-414] | 0 to 25 |  |  |
| CCOC(=O)c1cc2ccc(C(=N)N)cc2n1Cc1cccc2ccccc12 [Compound I-601] |  | 50 to 75 |  |
| CC1CCCCN1CCCNC(=O)c1cc2ccc(C(=N)N)cc2n1Cc1cccc2ccccc12 (centres unmarked) [Compound I-479] |  |  | Mar-2 % inhibition at 1 uM (1 uM compound, Assay Used = B): C (C represents 50%≤I≤75%) |
| N=C(N)c1ccc2cc(C(=O)Nc3cccc(N4CCCC4)n3)n(Cc3cccc4ccccc34)c2c1 [Compound I-461] | 25 to 50 |  |  |
| N=C(N)c1ccc2cc(C(=O)N[C@H]3CC[C@H](N)CC3)n(Cc3ccccc3-c3ccccc3)c2c1 [Compound I-510] | 0 to 25 |  |  |
| Cc1c(C(=O)N[C@H]2CC[C@H](N)CC2)n(Cc2cc(Oc3ncccn3)cc3ccccc23)c2cc(C(=N)N)ccc12 [Compound I-591] | 75 to 100 |  |  |
| COCc1c(C(=O)N[C@H]2CC[C@H](N)CC2)n(Cc2cccc3ccccc23)c2cc(C(=N)N)ccc12 [Compound I-517, N-((1r,4r)-4-aminocyclohexyl)-6-carbamimidoyl-3-(methoxymethyl)-1-(naphthalen-1-ylmethyl)-1H-indole-2-carboxamide] | 50 to 75 |  |  |
| N=C(N)c1ccc2cc(C(=O)NC3CCC(N)CC3)n(Cc3ccc(CN)c4ccccc34)c2c1 (centres unmarked) [Compound I-666] |  | 50 to 75 |  |
| CNC(=N)c1ccc2cc(C(=O)NC3CCC(NC(=O)OC(C)(C)C)CC3)n(Cc3ccc4ccccc4c3)c2c1 (centres unmarked) [Compound I-412] | 25 to 50 |  |  |
| CCOC(=O)c1cc2ccc(C(=N)N)cc2n1Cc1cc(Oc2ccsc2)cc2ccccc12 [Compound I-592] | 0 to 25 |  |  |
| N=C(N)c1ccc2cc(C(=O)N[C@H]3CC[C@H](N)CC3)n(Cc3ccc(COCc4ccccc4)c4ccccc34)c2c1 [Compound I-781] |  | 75 to 100 |  |

| Structure (SMILES) | inhibition at 1 µM (1 uM compound, Assay Used = B) [%] | inhibition at 1 µM [1] [%] | also measured |
| --- | --- | --- | --- |
| CC(C)(C)OC(=O)NC(=N)c1ccc2cc(C(=O)N3CCCN(C(=O)OC(C)(C)C)CC3)n(Cc3cccc4ccccc34)c2c1 [Compound I-423] | 0 to 25 |  |  |
| CC(C)(C)OC(=O)NC(=N)c1ccc2cc(C(=O)N3CCC(CO)CC3)n(Cc3cccc4ccccc34)c2c1 [Compound I-426] | 0 to 25 |  |  |
| N=C(N)c1ccc2cc(C(=O)N[C@H]3CC[C@H](N)CC3)n(Cc3ccc(Br)c4ccccc34)c2c1 [Compound I-794] |  | 75 to 100 |  |
| N=C(N)c1ccc2cc(C(=O)O)n(Cc3cccc4c(Oc5ccccc5)cccc34)c2c1 [Compound I-730] |  | 50 to 75 |  |
| N=C(N)c1ccc2cc(C(=O)O)n(Cc3cc(Oc4ccccc4)cc4ccccc34)c2c1 [Compound I-746] |  | 50 to 75 |  |
| N=C(N)c1ccc2cc(N3CCOCC3)n(Cc3cccc4ccccc34)c2c1 [Compound I-644, 2-morpholino-1-(naphthalen-1-ylmethyl)-1H-indole-6-carboximidamide] |  | 25 to 50 |  |
| N=C(N)c1cc2c(cn1)cc(C(=O)O)n2Cc1cccc2ccccc12 [Compound I-706] |  | 25 to 50 |  |
| Cc1cccc2sc(Cn3c(C(=O)N[C@H]4CC[C@H](N)CC4)cc4ccc(C(=N)N)cc43)cc12 [Compound I-820] |  |  | inhibition at 1 µM [2]: 25 to 50% |
| N=C(NC(=O)OCC(Cl)(Cl)Cl)c1ccc2cc(C(=O)O)n(Cc3cc(Oc4ncccn4)cc4ccccc34)c2c1 [Compound I-552] | 0 to 25 |  |  |
| CCOC(=O)c1cc2ccc(/C(N)=N/C#N)cc2n1Cc1cc(Oc2ncccn2)cc2ccccc12 [Compound I-558, ethyl (Z)-6-(N′-cyanocarbamimidoyl)-1-((3-(pyrimidin-2-yloxy)naphthalen-1-yl)methyl)-1H-indole-2-carboxylate] | 0 to 25 |  |  |
| CC(C)(C)OC(=O)NCc1ccc2cc(C(=O)O)n(Cc3cccc4ccccc34)c2c1 [Compound I-539, 6-(((tert-butoxycarbonyl)amino)methyl)-1-(naphthalen-1-ylmethyl)-1H-indole-2-carboxylic Acid] | 0 to 25 |  |  |
| N=C(N)c1ccc2cc(C(=O)O)n(Cc3cccc4ccccc34)c2n1 [Compound I-766] |  | 75 to 100 |  |
| N=C(N)c1ccc2cc(C(=O)N[C@H]3CC[C@H](N)CC3)n(Cc3ccc4ccccc4c3)c2c1 [Compound I-233] |  |  | inhibition at 1 µM (at 1 uM, Assay Used = B): 25 to 50% |
| CN1CCN(C(=O)c2cc3ccc(C(=N)N)cc3n2Cc2cccc3ccccc23)CC1 [Compound I-443] | 0 to 25 |  |  |
| N=C(N)c1ccc2cc(C(=O)O)n(Cc3cc(Oc4ccsc4)cc4ccccc34)c2c1 [Compound I-655] |  | 50 to 75 |  |
| CN(C(=O)c1cc2ccc(C(=N)N)cc2n1Cc1cccc2ccccc12)[C@H]1CC[C@H](N)CC1 [Compound I-451] | 50 to 75 |  |  |
| CC(C)COC(=O)NC(=N)c1ccc2cc(C(=O)O)n(Cc3cccc4ccccc34)c2c1 [Compound I-791] |  | 0 to 25 |  |
| N=C(N)c1ccc2[nH]c(C(=O)O)c(Cc3cc(Oc4ccccc4)cc4ccccc34)c2c1 [Compound I-588] | 25 to 50 |  |  |
| N=C(N)c1ccc2c(N)c(C(=O)N[C@H]3CC[C@H](N)CC3)n(Cc3cccc4ccccc34)c2c1 [Compound I-511, 3-amino-N-((1r,4r)-4-aminocyclohexyl)-6-carbamimidoyl-1-(naphthalen-1-ylmethyl)-1H-indole-2-carboxamide] | 75 to 100 |  |  |
| CC(C)COC(=O)NC(=N)c1ccc2cc(C(=O)OCc3ccccc3)n(Cc3cc(Oc4ncccn4)cc4ccccc34)c2c1 [Compound I-581] | 25 to 50 |  |  |
| NCc1ccc2cc(C(=O)N[C@H]3CC[C@H](N)CC3)n(Cc3cc(Oc4ncccn4)cc4ccccc34)c2c1 [Compound I-605] |  | 50 to 75 |  |
| COC(=O)N[C@H]1CC[C@H](NC(=O)c2cc3ccc(C(=N)N)cc3n2Cc2cccc3ccccc23)CC1 [Compound I-735] |  | 25 to 50 |  |
